The values below come from patent US5578601A, “Nonpeptide bradykinin antagonists” (Sterling Winthrop Inc., priority 1995, dated 1996).

One assay has as its target T1, bradykinin B2 receptor (Homo sapiens, UniProt P30411).
T1 construct: These cells contain the bradykinin B2 receptor as previously described; endogenous in cells; host or cells: human IMR-90 fetal lung fibroblasts
T1 sequence (P30411 1-391): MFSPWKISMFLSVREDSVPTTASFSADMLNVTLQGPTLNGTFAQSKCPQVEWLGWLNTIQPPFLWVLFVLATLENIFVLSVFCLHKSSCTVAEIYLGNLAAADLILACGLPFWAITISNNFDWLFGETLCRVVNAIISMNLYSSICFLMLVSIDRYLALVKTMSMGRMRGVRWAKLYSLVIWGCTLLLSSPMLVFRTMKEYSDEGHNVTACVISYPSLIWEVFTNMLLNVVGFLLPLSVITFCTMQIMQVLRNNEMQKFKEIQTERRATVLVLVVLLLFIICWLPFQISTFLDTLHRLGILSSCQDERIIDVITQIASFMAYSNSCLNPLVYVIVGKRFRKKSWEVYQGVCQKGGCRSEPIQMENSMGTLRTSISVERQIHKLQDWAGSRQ
In words: [3H]-bradykinin radioligand competitive binding to human IMR-90 fetal lung fibroblasts (bradykinin B2 receptor). Particulars: human IMR-90 cells, 2 h, 4° C, pH 7.4, mean values from 2-3 experiments. The protocol: The receptor binding affinity (KI) of the compounds of the present invention was determined in [^3 H]-bradykinin radioligand binding studies using human IMR-90 fetal lung fibroblasts. […] Briefly stated, harvested IMR-90 cells were resuspended to the desired cell concentration in ice cold buffer containing phosphate buffered saline (PBS) pH-7.4, sodium azide (0.02%), 0.1% BSA, PMSF (1 mM), DTT (1 mM), and captopril (1 mM). For competitive inhibition binding studies, cells were incubated with bradykinin (1-2 nM) in the absence or presence of increasing concentrations of competing compound. All assay mixtures were incubated for 2 hours at 4° C. The binding assays were terminated by filtration through Whatman GF/B filters on a Brandel Cell Harvester and the filters were washed with 3×1 ml aliquots of ice cold PBS containing 0.1% BSA. All filters were presoaked in 0.1% polyethylenimine to decrease nonspecific filter binding.

In assay [1] the test system is inflammation and hyperalgesia. Particulars: intraplantar carrageenan; cited from earlier work.
For another assay, the system named is nociception/hyperalgesia. Particulars: several different animal models of nociception/hyperalgesia; cited from earlier work.
Another assay concerns rhinovirus infection. Particulars: intranasal, experimentally induced infection; cited from earlier work.

Counter-ions that a name gives are not always drawn. Like-named read-outs stand apart in the source and are kept apart here.

For orientation: Ki means a dissociation constant, usually derived from enzyme kinetics or from competition with a known ligand. For `CCCC[P+](CCCC)(CCCC)Cc1ccc(NC(=O)C(Cc2ccc(C(=O)c3ccccc3)cc2)NC(=NC2CCCCC2)NC2CCCCC2)cc1` (stereo not shown) [Example 3, Phosphonium, [[4-[[3-(4-benzoylphenyl)-2-[[bis(cyclohexylamino)methylene]amino]-1-oxopropyl]amino]phenyl]methyl]tributyl-, chloride, monohydrochloride], the Ki on bradykinin B2 receptor (read-out: IMR 90 Ki) stood at 5.8 µM. As for `CCCC[P+](CCCC)(CCCC)Cc1cccc(NC(=O)C(Cc2ccc3ccccc3c2)N=C(NC2CCCCC2)NC2CCCCC2)c1` (stereo not shown) [Example 17, Phosphonium, [[3-[[2-[[bis(cyclohexylamino)methylene]amino]-3-(2-naphthalenyl)-1-oxopropyl]amino]phenyl]methyl]tributyl-, chloride, monohydrochloride], on bradykinin B2 receptor (read-out: IMR 90 Ki), the Ki was determined as 3 µM. Same read-out and setting: for `CCCC[P+](CCCC)(CCCC)Cc1ccc(NC(=O)C(Cc2csc3ccccc23)N=C(NC2CCCCC2)NC2CCCCC2)cc1` (stereo not shown) [Example 13, Phosphonium, [[4-[[3-benzo[b]thien-3-yl-2-[[bis(cyclohexylamino)methylene]amino]-1-oxopropyl]amino]phenyl]methyl]tributyl-, chloride, monohydrochloride] the value was 0.43 µM. On bradykinin B2 receptor (IMR 90 Ki), `O=C(NC1CN2CCC1CC2)C(Cc1ccc(Cl)cc1)NC(=NC1CCCCC1)NC1CCCCC1` (stereo not drawn) [Example 22, 4-chlorophenylpropanamide, N-1-azabicyclo[2.2.2]oct-3-yl-α-[[bis(cyclohexylamino)methylene]amino]-, dihydrochloride] showed a Ki of 2.9 µM. For the compound `CCCC[P+](CCCC)(CCCC)Cc1ccc(NC(=O)C(Cc2ccc3ccccc3c2)N=C(NCCC)NCCCc2ccccc2)cc1` (stereo not shown) [Example 10, Phosphonium, tributyl[[4-[[3-(2-naphthalenyl)-1-oxo-2-[[[(3-phenylpropyl)amino](propylamino)methylene]amino]propyl]amino]phenyl]methyl]-, chloride, monohydrochloride], the Ki at bradykinin B2 receptor (read-out: IMR 90 Ki) is 1.95 µM.

With `O=C(Nc1cccc2cnccc12)C(Cc1ccc2ccccc2c1)N=C(NC1CCCCC1)NC1CCCCC1` (stereo not drawn) [Example 24, 2-Naphthalenepropanamide, α-[[bis(cyclohexylamino)methylene]amino]-N-5-isoquinolinyl-, monohydrochloride], the Ki at bradykinin B2 receptor (read-out: IMR 90 Ki) amounted to 2.54 µM. For NPC-567, the “antagonism of inflammation and hyperalgesia” value in assay [1] is “antagonized”. For the same compound, in the assay with nociception/hyperalgesia, the antinociceptive activity result is recorded as “antinociceptive”. For the same compound, the “beneficial effects on the course of rhinovirus infection” value in the assay on rhinovirus infection is recorded as “failed to demonstrate beneficial effects”. For the compound `O=C(NCc1nc2ccccc2[nH]1)C(Cc1ccc2ccccc2c1)N=C(NC1CCCCC1)NC1CCCCC1` (stereo not drawn) [Example 25, 2-Naphthalenepropanamide, N-(1H-benzimidazol-2-ylmethyl)-α-[[bis(cyclohexylamino)methylene]amino]-, monohydrochloride], the Ki at bradykinin B2 receptor (read-out: IMR 90 Ki) came out at 5.3 µM.
